Measured values reported in patent US5559132A, “Carboxamide derivatives for treating asthma” (Zeneca Limited, priority 1993, dated 1996).

Biological target: T1, guinea pig trachea (NKA or [β-ala8]-NKA(4-10) as agonist) (Cavia porcellus, UniProt Q64077)
T1 construct: The trachea are removed, trimmed of excess tissue and divided into two segments; from tissue; host or cells: guinea pig trachea rings (male animals)
T1 sequence (Q64077 1-402): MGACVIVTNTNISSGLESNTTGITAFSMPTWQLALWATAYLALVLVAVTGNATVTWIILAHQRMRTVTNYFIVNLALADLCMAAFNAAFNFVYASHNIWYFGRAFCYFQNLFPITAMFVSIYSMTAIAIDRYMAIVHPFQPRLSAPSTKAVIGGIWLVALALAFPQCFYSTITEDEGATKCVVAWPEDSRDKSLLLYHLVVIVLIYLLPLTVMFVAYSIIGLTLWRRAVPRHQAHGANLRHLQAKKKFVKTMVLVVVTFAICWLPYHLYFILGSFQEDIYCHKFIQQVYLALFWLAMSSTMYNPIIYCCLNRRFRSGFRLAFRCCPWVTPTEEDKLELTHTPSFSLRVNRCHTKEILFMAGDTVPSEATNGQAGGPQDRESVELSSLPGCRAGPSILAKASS
Experiment: Guinea Pig Assay (Test B): antagonism of NKA or [β-ala8]-NKA(4-10) contraction in guinea pig trachea
Settings: -log molar KB
Procedure: In the test described below either NKA or [β-ala^8 ]-NKA(4-10) is used as an agonist. The chosen agonist is refered to as AG throughout the description.
Male guinea pigs are killed by a sharp blow to the back of the head. The trachea are removed, trimmed of excess tissue and divided into two segments. […] Initial tension placed on each tissue is 1 g, which is maintained throughout a 0.5 to 1.5 hour equilibration period before addition of other drugs. Contractile responses are measured on a Grass polygraph via Grass FT-03 force transducers.
Tissues are challenged repetitively with a single concentration of AG (10 nM) with intervening 30 min periods with washing to allow the tension to return to baseline levels. […] Percent inhibition is determined when a Compound produces a statistically significant (p<0.05) reduction of the contraction and is calculated using the second contractile response as 100%.
Potencies of selected Compounds are evaluated by calculating apparent dissociation constants (KB) for each concentration tested using the standard equation: […]
where dose ratio=antilog[(AG -log molar EC50 without Compound)--(AG -log molar EC50 with Compound)]. The KB values may be converted to the negative logarithms and expressed as -log molar KB (i.e. pKB). […] The EC50 values are converted to the negative logarithms and expressed as -log molar EC50. […]

## CC(=O)N(C1CCCCC1)C1CCN(CCC(CN(C)C(=O)c2ccccc2)c2ccc(Cl)c(Cl)c2)CC1 (stereo not shown) [Example 4, N-[4-[4-(N-Cyclohexylacetamido)piperidino]-2-(3,4-dichlorophenyl)butyl]-N-methylbenzamide]
  Kb: 20 nM
